PMC3930709, “Selective Activation of hTRPV1 by N-Geranyl Cyclopropylcarboxamide, an Amiloride-Insensitive Salt Taste Enhancer” (PLoS ONE, 2014)
Each block holds one compound with its values, some of them ahead of it.

Assays:
Type in all cases: cell-based
hTRPA1 = biological target: T1, hTRPA1 (Homo sapiens, UniProt O75762); experiment: Whole-cell patch clamp recording, cells stably expressing hTRPA1; conditions: AITC 100 µM; NGCC 10^3 µM; holding -80 mV
T1 construct: expressed in transfected cells
T1 sequence (O75762 whole entry): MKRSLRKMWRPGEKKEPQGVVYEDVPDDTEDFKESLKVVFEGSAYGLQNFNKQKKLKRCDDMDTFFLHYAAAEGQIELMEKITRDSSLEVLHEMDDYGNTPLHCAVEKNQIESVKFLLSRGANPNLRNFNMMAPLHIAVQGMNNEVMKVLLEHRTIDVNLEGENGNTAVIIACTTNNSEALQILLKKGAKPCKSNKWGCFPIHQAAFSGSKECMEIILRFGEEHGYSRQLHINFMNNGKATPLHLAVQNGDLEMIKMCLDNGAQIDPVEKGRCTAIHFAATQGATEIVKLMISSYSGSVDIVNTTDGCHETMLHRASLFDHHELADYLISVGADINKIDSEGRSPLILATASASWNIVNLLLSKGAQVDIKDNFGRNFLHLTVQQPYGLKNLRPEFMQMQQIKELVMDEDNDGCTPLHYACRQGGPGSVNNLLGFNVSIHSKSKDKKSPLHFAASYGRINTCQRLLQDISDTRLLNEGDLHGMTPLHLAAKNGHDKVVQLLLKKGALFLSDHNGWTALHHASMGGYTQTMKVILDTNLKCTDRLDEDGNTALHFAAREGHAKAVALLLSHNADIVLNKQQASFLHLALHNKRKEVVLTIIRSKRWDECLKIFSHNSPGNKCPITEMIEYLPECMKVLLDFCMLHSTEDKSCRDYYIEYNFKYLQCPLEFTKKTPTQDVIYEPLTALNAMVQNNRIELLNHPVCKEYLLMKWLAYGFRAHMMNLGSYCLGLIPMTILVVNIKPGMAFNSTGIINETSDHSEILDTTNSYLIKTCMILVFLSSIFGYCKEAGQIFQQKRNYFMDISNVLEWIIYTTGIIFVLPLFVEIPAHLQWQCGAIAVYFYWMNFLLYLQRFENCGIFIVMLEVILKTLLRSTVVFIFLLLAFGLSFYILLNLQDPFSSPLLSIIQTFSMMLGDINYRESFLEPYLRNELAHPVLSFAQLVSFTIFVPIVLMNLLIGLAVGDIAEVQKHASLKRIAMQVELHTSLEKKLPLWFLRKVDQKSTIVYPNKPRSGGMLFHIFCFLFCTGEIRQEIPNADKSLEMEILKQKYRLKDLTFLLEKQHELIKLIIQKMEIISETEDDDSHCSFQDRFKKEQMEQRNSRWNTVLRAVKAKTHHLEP
Protocol: Flp-In 293 cell lines stably expressing hTRPA1constructed as previously reported was a gift from the professor Takumi Misaka at University of Tokyo. The hTRPA1-expressing cells were cultured in DMEM containing 10% FBS and 0.02% hygromycin B (Invitrogen). Flp-In 293 cell lines were maintained in DMEM containing 10% FBS. All cells were incubated at 37°C in a humidified atmosphere of 5% CO2.
(§1) The whole-cell configuration was used to voltage-clamp at room temperature (22–25°C). Electrodes pulled from glass micropipette capillaries (Sutter Instrument) had resistances of 2–2.5 MΩ, and series resistance errors were compensated >60%. Fast and slow capacitances were compensated before the application of test-pulse. Recordings were performed using aHEKAEPC-10 amplifier with pulse software (HEKA Elektronik). The pipette solution contained: 140 mM KCl, 5 mM MgCl2, 10 mM HEPES, 0.1 mM 1,2-bis(2-aminophenoxy) ethane N,N,N’,N’-tetraacetic acid(BAPTA), 3 mM Na2ATP, and 0.1 mM Na3GTP, adjusted to pH 7.4 with KOH. The external Ringer’s solution used for recording TRPV1 and TRPA1 currents contained: 150 mM NaCl, 5 mM KCl, 1 mM MgCl2, 2 mM EGTA, 10 mM Glucose, and 10 mM HEPES, adjusted to pH 7.4 with NaOH. TRPV1 and TRPA1 currents were recorded by holding the cell at −80 mV. The external Ringer’s solution used for recording ASIC current contained: 160 mM NaCl, 5 mM KCl, 1 mM MgCl2, 2 mM CaCl2, and 10 mM HEPES, adjusted to pH 7.4 with tetramethylammonium hydroxide. For acidic solution of pH 6.0, HEPES was replaced with MES. ASIC currents were recorded by holding the cell at −70 mV. Reagents were obtained as follows: BAPTA, Na2ATP, Na3GTP, EGTA, and tetramethylammonium hydroxide (Sigma), HEPES (Calbiochem), MES (Alfa Aesar), and other chemicals (Merck).

αβγ hENaC = biological target: T2, αβγ hENaC (Homo sapiens, UniProt P37088+P51168+P51170); experiment: Membrane potential assay (FMP dye) on αβγ hENaC-expressing cells; conditions: continuous presence of Bz (0.01 µM)
T2 construct: GFP; host or cells: HEK293T
T2 sequence (P37088 1-669): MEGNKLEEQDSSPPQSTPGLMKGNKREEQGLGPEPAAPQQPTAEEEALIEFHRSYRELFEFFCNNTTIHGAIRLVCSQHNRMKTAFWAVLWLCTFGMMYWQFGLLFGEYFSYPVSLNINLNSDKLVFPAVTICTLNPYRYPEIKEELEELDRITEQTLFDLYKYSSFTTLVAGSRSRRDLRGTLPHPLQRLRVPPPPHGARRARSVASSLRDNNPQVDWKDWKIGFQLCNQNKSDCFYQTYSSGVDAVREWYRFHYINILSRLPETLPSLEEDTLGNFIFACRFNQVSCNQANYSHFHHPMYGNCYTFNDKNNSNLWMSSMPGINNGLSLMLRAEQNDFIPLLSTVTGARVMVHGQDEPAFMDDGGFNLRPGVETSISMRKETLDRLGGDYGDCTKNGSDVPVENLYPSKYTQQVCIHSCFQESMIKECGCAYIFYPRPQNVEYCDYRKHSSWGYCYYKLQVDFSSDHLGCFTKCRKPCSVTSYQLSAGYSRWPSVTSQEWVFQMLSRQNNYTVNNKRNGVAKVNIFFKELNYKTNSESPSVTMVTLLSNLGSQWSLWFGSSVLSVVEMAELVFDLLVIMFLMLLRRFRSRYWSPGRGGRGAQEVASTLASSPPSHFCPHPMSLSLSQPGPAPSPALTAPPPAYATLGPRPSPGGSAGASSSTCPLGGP
T2 sequence (P51168 1-640): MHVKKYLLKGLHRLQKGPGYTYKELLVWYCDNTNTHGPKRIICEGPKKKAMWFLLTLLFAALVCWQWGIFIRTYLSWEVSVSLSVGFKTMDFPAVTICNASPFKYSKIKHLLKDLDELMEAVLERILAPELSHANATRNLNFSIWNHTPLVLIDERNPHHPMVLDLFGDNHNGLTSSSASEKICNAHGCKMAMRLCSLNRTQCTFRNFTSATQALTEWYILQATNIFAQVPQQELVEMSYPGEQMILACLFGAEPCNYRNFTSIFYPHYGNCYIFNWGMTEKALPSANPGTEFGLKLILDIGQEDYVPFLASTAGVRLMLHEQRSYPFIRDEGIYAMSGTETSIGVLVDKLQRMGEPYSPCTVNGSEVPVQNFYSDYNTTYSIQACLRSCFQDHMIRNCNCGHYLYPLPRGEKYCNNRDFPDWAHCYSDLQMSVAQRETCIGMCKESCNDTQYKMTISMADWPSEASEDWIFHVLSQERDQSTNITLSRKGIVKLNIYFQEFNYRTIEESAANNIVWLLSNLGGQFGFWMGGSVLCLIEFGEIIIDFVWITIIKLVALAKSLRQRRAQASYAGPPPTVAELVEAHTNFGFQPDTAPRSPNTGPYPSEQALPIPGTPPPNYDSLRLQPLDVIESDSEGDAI
T2 sequence (P51170 1-649): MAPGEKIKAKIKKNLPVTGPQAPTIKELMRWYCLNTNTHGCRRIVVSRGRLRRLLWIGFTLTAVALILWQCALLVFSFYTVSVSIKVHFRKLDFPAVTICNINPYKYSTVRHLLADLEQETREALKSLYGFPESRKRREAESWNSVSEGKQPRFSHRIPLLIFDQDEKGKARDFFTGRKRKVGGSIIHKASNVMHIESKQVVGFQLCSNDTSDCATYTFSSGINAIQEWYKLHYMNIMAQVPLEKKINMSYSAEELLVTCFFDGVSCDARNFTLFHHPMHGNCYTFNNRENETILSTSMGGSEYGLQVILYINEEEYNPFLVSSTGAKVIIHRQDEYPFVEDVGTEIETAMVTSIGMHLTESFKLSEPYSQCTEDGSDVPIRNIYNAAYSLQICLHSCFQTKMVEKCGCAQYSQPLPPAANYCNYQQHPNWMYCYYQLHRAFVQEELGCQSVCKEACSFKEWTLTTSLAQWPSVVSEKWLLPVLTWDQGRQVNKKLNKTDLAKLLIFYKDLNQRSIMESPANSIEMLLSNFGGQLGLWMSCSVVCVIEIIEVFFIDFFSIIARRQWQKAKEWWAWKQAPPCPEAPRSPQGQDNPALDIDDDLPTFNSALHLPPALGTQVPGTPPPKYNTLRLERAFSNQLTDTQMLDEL
Protocol: The α, β, and γ hENaC subunits were cloned from OriGene (Rockville, MD; GenBank accession number […] for SCNN1A, NM_000336 for SCNN1B and NM_001039 for SCNN1G). α, GFP-tagged β, and γ hENaC were cloned into a CMV promoter-based vector and expressed constitutively. The HEK293T cells were seeded onto a 35 mm dish and transfected with α, β, and γ hENaC expression plasmid using Lipofectamine 2000 (Invitrogen). Then, transfected cells were seeded onto 96-well black-wall plate for 18–26 h prior to their use in an experiment.
hENaC-expressing cells were characterized using FLIPER Membrane Potential (FMP) Assay Kit (Molecular Devices Corporation, Sunnyvale, CA, USA). In this assay, changes in the membrane potential were quantified via fluorescence change caused by FMP dye. The hENaC-expressing cells were washed with assay buffer (containing: 130 mM NaCl, 10 mM glucose, 5 mM KCl, 2 mM CaCl2, 1.2 mM MgCl2, and 10 mM HEPES, pH adjusted to 7.4 with NaOH) and subsequently, FMP blue-dye in assay buffer was loaded into the cells at room temperature for 30 min. After dye treatment, S3969 (0.03−10 µM), an ENaC agonist, S3969+Bz (ENaC antagonist, 0.01 µM), or NGCC (0.01−10 µM) was treated to hENaC-expressing cells. The plate was assayed in a FlexStation III plate reader (Molecular devices Corporation) by excitation at 530 nm and measuring the emission at 560 nm.

hTRPV1 [1] = biological target: T3, hTRPV1 (Homo sapiens, UniProt Q8NER1); experiment: Measurement of Ca2+ influx (Fluo-4 AM, FlexStation III) in hTRPV1-expressing cells; conditions: RR 30 µM or CPZ 1 µM added with agonist
T3 construct: expressed in transfected cells; host or cells: HEK293T
T3 sequence (Q8NER1 whole entry): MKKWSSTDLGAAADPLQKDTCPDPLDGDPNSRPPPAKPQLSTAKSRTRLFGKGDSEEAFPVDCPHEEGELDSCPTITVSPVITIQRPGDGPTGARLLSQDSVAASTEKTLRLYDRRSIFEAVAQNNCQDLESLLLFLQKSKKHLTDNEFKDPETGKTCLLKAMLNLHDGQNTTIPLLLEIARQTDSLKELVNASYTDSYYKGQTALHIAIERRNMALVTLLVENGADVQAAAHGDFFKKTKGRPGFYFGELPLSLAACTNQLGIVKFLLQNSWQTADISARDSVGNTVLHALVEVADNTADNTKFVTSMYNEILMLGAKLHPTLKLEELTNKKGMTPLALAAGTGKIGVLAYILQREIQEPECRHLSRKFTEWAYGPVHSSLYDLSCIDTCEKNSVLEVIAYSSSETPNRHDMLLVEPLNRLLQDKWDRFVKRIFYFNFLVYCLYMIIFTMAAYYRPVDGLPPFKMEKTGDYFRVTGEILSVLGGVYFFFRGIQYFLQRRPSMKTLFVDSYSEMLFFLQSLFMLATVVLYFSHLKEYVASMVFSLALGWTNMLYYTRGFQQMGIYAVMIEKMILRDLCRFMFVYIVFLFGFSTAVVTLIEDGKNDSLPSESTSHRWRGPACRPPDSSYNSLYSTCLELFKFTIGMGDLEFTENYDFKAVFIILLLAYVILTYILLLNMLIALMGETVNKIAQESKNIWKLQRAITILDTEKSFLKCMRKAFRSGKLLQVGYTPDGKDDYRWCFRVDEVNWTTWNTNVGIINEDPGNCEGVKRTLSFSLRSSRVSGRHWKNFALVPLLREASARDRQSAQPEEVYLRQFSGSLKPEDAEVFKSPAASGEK
Protocol: hTRPV1 was constructed by amplification of the hTRPV1 region (NCBI accession number: NG_029716.1) and cloned into pEAK10 vector (Edge Biosystems, Gaithersburg, MD, USA). The hTRPV1 construct was amplified by PCR and the nucleotide sequence of the hTRPV1 gene was confirmed by sequencing with an ABI 3130 DNA genetic analyzer (Applied Biosystems, Foster City, CA, USA). […] After 6 h, transfected cells were seeded onto 96-well black-wall plate (BD Falcon Labware, Franklin Lakes, NJ, USA) for 18–26 h prior to their use in an experiment. The ligand-induced changes on cytosolic Ca^2+ level were monitored by a FlexStation III microplate reader (Molecular Devices). Fluo-4 AM (5 µM, Molecular Probes, Eugene, OR, USA) in assay buffer was loaded to the cells in 96-well black-wall plates for 30 min at 27°C. After dye treatment, each chemical was added to each well at 17 s and changes on intracellular Ca^2+ level were monitored by relative fluorescence units (ΔRFU, Ex = 485 nm; Em = 516 nm) for 120 s. […] The responses from at least three wells receiving the same stimulus were averaged. Plots of amplitude versus concentration were fitted using the Hill equation.

hTRPV1 [2] = biological target: T3, hTRPV1; experiment: Whole-cell patch clamp recording, hTRPV1-expressing HEK293T cells
Protocol: Mouse ASIC1a (mASIC1a) was a kind gift from John A. Wemmie (University of Iowa, IA, USA). For electrophysiological experiments, HEK293T cells were cultured in DMEM supplemented with 10% FBS and 0.2% penicillin/streptomycin and transiently transfected using Lipofectamine 2000 (Invitrogen) with various cDNAs. For TRPV1 channel expression, cells were transfected with hTRPV1, for ASIC1a homomeric channel expression, cells were transfected with mASIC1a. When needed, 0.1–0.2 µg of cDNA encoding tetrameric red fluorescence protein (DsRed) was co-transfected with the cDNA as a marker for successfully transfected cells. For non-transfected cells, cells were transfected with 0.1–0.2 µg of cDNA encoding DsRed alone. The next day, cells were plated onto poly-L-lysine-coated coverslip chips, and fluorescent cells were studied within 1–2 days.
as §1

hTRPV1 [3] = biological target: T3, hTRPV1; experiment: Ca2+ imaging (Fura-2 AM) of hTRPV1-expressing HEK293T cells; conditions: NGCC 30 µM; RR 30 µM, CPZ 1 µM
Protocol: hTRPV1 was constructed by amplification of the hTRPV1 region (NCBI accession number: NG_029716.1) and cloned into pEAK10 vector (Edge Biosystems, Gaithersburg, MD, USA). The hTRPV1 construct was amplified by PCR and the nucleotide sequence of the hTRPV1 gene was confirmed by sequencing with an ABI 3130 DNA genetic analyzer (Applied Biosystems, Foster City, CA, USA). […] After 6 h, transfected cells were seeded onto 96-well black-wall plate (BD Falcon Labware, Franklin Lakes, NJ, USA) for 18-26 h prior to their use in an experiment. Mock-transfected HEK293T cells, hTRPV1-expressing HEK293T cells, non-hTRPA1-expressing Flp-In 293 cells, and hTRPA1-expressing Flp-In 293 cells grown in 96-well black-wall plates were rinsed with assay buffer (130 mM NaCl, 10 mM glucose, 5 mM KCl, 2 […]2, 1.2 mM MgCl2, and 10 mM HEPES, pH 7.4) and loaded with 5 μM Fura-2 AM (Invitrogen) for 30 min at 27°C. […] The fluorescence intensities of Fura-2 excited at 340 and 380 nm were simultaneously measured at 510 nm using a computer-controlled filter changer (Lambda DG4; Sutter, San Rafael, CA, USA), an Andor Luca CCD camera (Andor Technology, Belfast, UK), and an inverted fluorescence microscope (IX-71; Olympus, Tokyo, Japan). Intracellular calcium images were recorded every 3-s for 60-s and analyzed using MetaFluor software (Molecular Devices, Sunnyvale, CA, USA).

[4] = first pulse normalized to 1.0, n = 4

SMILES: C=CCN=C=S [AITC, Allylisothiocyanate]
inward current in hTRPA1-expressing cells (hTRPA1): evoked an inward current

inhibition of S3969 activity on αβγ hENaC-expressing cells (αβγ hENaC): No effect of S3969 was observed
SMILES: NC(=NCc1ccccc1)NC(=O)c1nc(Cl)c(N)nc1N [Bz, benzamil]

block of capsaicin-induced current (hTRPV1 [2]; CPZ 1 µM preincubation 20 seconds, capsaicin 100 nM): blocked | normalized current density of NGCC-induced current after wash out of CPZ (hTRPV1 [2]; [4]): 0.61±0.12 | normalized current density of NGCC-induced current under CPZ (hTRPV1 [2]; [4]): 0.12±0.05 | block of NGCC-induced Ca2+ influx in hTRPV1-expressing cells (hTRPV1 [3]): blocked NGCC activity to baseline levels
SMILES: Oc1cc2c(cc1O)CN(C(=S)NCCc1ccc(Cl)cc1)CCC2 [CPZ, capsazepine]
block of capsaicin- and NGCC-induced hTRPV1 activation (dose-response) (hTRPV1 [1]): blocked the effects of capsaicin and NGCC
